Experimental data taken from patent US7479377B2, “Genetic construct intracellular monitoring system” (DiscoveRx Corporation, priority 2001, dated 2009).
Each block holds one molecule with its values, some of them ahead of it. Peptide text beside a SMILES is read from it. * marks the point of attachment. Cbz = O=C(OCc1ccccc1)*

What was measured:
PL-PPARγ1 = assay: Proteosomal degradation of transiently expressed PL-PPAR (ED-EA complementation); assay type: cell-based, human; conditions: for Amount of PL-PPARγ1: MG132 20 μM
Excerpt: pcDNA3.1-PL-PPAR construct was obtained in the two rounds of the cloning procedure. In the first round, the ED (55-mer) sequence was inserted into NheI and KpnI sites of the pcDNA3.1/zeo vector (Invitrogen). PPARg1 gene was obtained by PCR amplification of the human placenta cDNA library and in the second round of cloning was inserted into KpnI and NotI sites of the vector.
Proteosomal degradation of transiently expressed PL-PPAR protein was detected in NIH3T3, ECV304 and HeLa cells. Cells were transfected with pcDNA3.1-PL-PPAR and 24 hours after transfection medium was removed and cells were treated either with the vehicle (DMSO) or MG132 (proteosome inhibitor). Transfections were carried out in 6-well plates as described above. Cells were washed with PBS buffer, lysed in 480 uL of lysis buffer containing CHAPS (a mild detergent) and tested for ED-EA complementation in triplicates. Thirty microliters of the cell lysates were placed in the wells of 384-well plates. After that, 10 uL of EA solution were added and reaction of complementation was carried out for one hour at room temperature. Fifteen microliters of chemiluminescent substrate (0.4 mM Galacton-Star (Applied Biosystems, Bedford, Mass.) and 2 mg/ml Emerald II substrate (Applied Biosystems, Bedford, Mass.)) were added to the wells and the chemiluminescent signals were read using Chemiluminescent reader (Packard LumiCount, Packard Biosystems) (FIGS. 10A, 10B and 10C).
PL-PPAR expression levels were tested in the presence of increasing concentrations of MG132 (FIG. 11). The experiment was done as described above, except that indicated concentrations of MG132 were employed.

[1] = test system: Hela cells stably expressing IkB-PL; assay: Cell Titer-Glo cell viability assay of Hela-IkB cells with EGF; assay type: cell-based; conditions: 0.5% FBS, serial dosage of rhEGF, 72 hours, FIG. 17
Method: Hela cells stably expressing IkB-PL were used. To confirm the cells response to EGF, the cell viability assay was performed. Hela-IkB cells were seeded in DMEM with 0.5% FBS in 96 well plate with a density of 5000 cells per well, exposing to a serial dosage of rhEGF. 72 hours later, cell viability assay was performed using the Cell Titer-Glo luminescence Cell Viability assay kit (Promega). […] (FIG. 17).

endogenous IL-1 receptor = biological target: T1, endogenous IL-1 receptor (Homo sapiens, UniProt P14778); assay: IL-1-induced IκB-ED degradation in HeLa cells; assay type: cell-based; conditions: IL-1 at various concentrations for 30 min
T1 construct: endogenous in cells; host or cells: HeLa cells transiently transfected with pCMV-IkB-ED or pCMV-IkB M-ED as reporter
T1 sequence (P14778 18-569): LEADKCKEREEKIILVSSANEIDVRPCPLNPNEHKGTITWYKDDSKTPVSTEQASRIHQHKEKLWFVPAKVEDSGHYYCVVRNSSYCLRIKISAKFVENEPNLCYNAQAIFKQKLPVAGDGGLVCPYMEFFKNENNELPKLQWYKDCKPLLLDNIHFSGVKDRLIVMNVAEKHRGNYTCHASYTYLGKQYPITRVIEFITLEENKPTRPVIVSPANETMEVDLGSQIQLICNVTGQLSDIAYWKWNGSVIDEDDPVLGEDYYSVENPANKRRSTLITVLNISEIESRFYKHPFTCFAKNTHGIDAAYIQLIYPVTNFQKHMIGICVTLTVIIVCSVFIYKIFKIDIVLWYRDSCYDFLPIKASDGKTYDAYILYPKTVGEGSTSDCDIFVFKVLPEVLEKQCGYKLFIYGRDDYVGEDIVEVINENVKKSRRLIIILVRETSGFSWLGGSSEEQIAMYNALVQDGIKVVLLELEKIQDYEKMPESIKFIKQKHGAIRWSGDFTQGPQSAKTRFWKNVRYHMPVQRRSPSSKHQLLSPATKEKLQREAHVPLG
T1 sequence (Q9NPH3 21-570 partner): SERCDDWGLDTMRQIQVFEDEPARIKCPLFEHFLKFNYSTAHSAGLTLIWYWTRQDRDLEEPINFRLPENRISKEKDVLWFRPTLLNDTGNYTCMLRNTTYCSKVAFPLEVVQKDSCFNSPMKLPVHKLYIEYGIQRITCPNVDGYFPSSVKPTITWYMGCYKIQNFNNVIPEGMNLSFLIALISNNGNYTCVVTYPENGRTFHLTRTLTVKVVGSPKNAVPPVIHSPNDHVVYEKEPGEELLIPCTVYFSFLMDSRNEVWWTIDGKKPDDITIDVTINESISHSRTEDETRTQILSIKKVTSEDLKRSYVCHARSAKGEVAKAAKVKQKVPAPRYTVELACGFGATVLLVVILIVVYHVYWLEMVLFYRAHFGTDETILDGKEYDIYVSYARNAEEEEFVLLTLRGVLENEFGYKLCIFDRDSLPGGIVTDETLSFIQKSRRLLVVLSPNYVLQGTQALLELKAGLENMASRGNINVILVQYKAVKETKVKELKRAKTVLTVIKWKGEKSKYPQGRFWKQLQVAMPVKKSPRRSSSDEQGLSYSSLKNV
Method: (§1) HeLa cells were seeded into 24 well plate 24 hr before transfection. 0.25 μg DNA was transfected into each well using Fugene6 (Roche) following manufacture's protocol. 24 hr after transfection, cells were subjected to treatment of TNFα (Sigma) at various concentrations for 30 min. Then the culture medium was removed, and cells were lysed in 90 μl of cell lysis buffer. […] Assay was performed in three replicates. The plate was incubated at room temperature for 30 min before addition of 15 μl chemiluminescence substrate. Plate was read 30 min after substrate addition. The untreated cells were normalized to 100% activity. […] In addition, the IκB-ED degradation was specifically linked to the upstream component activation. Also confirmed was that the IκB-ED degradation was dependent on IκB phosporylation at 32 and 36 residues, the same way as un-tagged IκB.
It has been reported that IL-1 activation of cells results in NF-κB pathway activation through the induced degradation of IκB. To confirm that the ED labeled IκB in cells was able to monitor IL-1 pathway activation, HeLa cells was transiently transfected with pCMV- IκB -ED or pCMV- IκB M-ED the same way as described above in 24 well plates. Cells were then treated with IL-1 (Sigma) at various concentrations for 30 min then assayed for ED activity.

IκB-ED = assay: TNFα-induced IκB-ED degradation in HeLa cells (ED/EA complementation, chemiluminescence); assay type: cell-based; conditions: TNFα at various concentrations for 30 min
Method: For transient transfection, cells were seeded into 6 well plate one day before experiment. For each well, 3 μl of Fugene 6 (Roche, Ind.) was diluted into 100_μl of serum free medium, and then 1_μg of plasmid DNA was added. The mixture was incubated at room temperature for 15 min before addition into wells dropwise. The plate was then incubated at 37° C. till the assay.
as §1

[2] = biological target: T2, human chemokine CCR3 receptor (Homo sapiens, UniProt P51677); assay: CCR3 activation leads to IkB-PL degradation in CHO-K1 cells; assay type: cell-based; conditions: CHO-K1 cells expressing CCR3, transfected with PCMV-IkB-PL; 30 min; FIG. 16
T2 sequence (P51677 1-355): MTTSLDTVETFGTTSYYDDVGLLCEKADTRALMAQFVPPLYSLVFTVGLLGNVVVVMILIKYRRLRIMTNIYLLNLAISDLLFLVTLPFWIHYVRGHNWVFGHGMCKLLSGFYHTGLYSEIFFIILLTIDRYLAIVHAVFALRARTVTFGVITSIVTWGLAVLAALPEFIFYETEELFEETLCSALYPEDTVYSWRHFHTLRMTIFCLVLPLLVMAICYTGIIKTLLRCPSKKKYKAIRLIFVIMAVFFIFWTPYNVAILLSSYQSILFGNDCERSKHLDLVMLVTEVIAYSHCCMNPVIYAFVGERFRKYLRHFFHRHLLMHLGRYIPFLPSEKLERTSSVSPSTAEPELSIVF
Method: CHO-K1 cells stably expressing human chemokine CCR3 receptor was obtained from Euroscreen. […] Cells were seeded in 6-well plates one day before transfection. PCMV-IkB-PL was transiently transfected into CHO MC4 cells using Fugene6 following manufacturer's protocol. […] (FIG. 16).

[3] = HeLa cells transfected with pCMV-IκB M-ED
[4] = HeLa cells transfected with pCMV-IκB-ED

Molecule: CC(C)C[C@@H](C=O)NC(=O)[C@H](CC(C)C)NC(=O)[C@H](CC(C)C)NC(=O)OCc1ccccc1 [MG132] (Cbz-Leu-Leu-Leu-aldehyde)
Amount of PL-PPARγ1 (PL-PPARγ1; ECV304 cells, FIG. 10B): enhancement of the amount of PL-PPARγ1
Amount of PL-PPARγ1 (PL-PPARγ1; HeLa cells, FIG. 10C): enhancement of the amount of PL-PPARγ1
Amount of PL-PPARγ1 (PL-PPARγ1; NIH3T3 cells, FIG. 10A): enhancement of the amount of PL-PPARγ1
PL-PPAR expression level with increasing concentrations of MG132 (PL-PPARγ1; increasing concentrations of MG132, FIG. 11): Dose-Dependent Increase

Molecule: EGF (NSDSECPLSHDGYCLHDGVCMYIEALDKYACNCVVGYIGERCQYRDLKWWELR)
Viable cell numbers [1]: responded to the EGF induction in a dosage dependent manner

Degradation of mutant IκB M-ED (endogenous IL-1 receptor; [3]): resistant to IL-1 induced degradation
Molecule: IL-1
IκB-ED activity (endogenous IL-1 receptor; [4]): decreased upon IL-1 treatment in a dose dependent manner

Molecule: TNFα
ED activity of mutant IκB M-ED (IκB-ED; [3]): did not show a dose dependent decrease of ED activity
ED activity of IκB-ED (degradation of wild type IκB) (IκB-ED; [4]): decrease the ED activity in a dose dependent manner

Molecule: eotaxin
IkB-PL degradation upon CCR3 activation [2]: activation of the chemokine receptor CCR3 leading to IkB-PL degradation
